# Measured values reported in PubChem BioAssay (NCI).
#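 Test compounds were applied to cells in 96-well plates for 48 hours at 5 doses. The concentration for 50% growth inhibition is given as GI50. At the TGI there is no net growth.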
# Legend:
# Test in all cases: DTP human tumour cell line panel, 48 h
# [1] = tested on: DU-145 prostate
# [2] = tested on: MALME-3M melanoma
# [3] = tested on: UO-31 renal
# [4] = tested on: PC-3 prostate
# [5] = tested on: OVCAR-3 ovarian
# [6] = tested on: A549 NSCLC
# [7] = tested on: UACC-62 melanoma
# [8] = tested on: U251 CNS
# [9] = tested on: HS 578T breast
# [10] = tested on: BT-549 breast
# [11] = tested on: HCC-2998 colon
# [12] = tested on: CAKI-1 renal
# [13] = tested on: UACC-257 melanoma
# [14] = tested on: SR leukemia
# [15] = tested on: KM12 colon
# [16] = tested on: K-562 leukemia
# [17] = tested on: OVCAR-8 ovarian
# [18] = tested on: SK-MEL-2 melanoma
# [19] = tested on: HOP-92 NSCLC
# [20] = tested on: MOLT-4 leukemia
# [21] = tested on: HOP-62 NSCLC
# [22] = tested on: SF-539 CNS
# [23] = tested on: NCI-H460 lung
# [24] = tested on: HCT-116 colon
# [25] = tested on: HCT-15 colon
# [26] = tested on: SN12C renal
# [27] = tested on: OVCAR-4 ovarian
# [28] = tested on: ACHN renal
# [29] = tested on: 786-0 renal
# [30] = tested on: HL-60(TB) leukemia
# [31] = tested on: TK-10 renal
# [32] = tested on: NCI/ADR-RES ovarian
# [33] = tested on: SNB-75 CNS
# [34] = tested on: EKVX NSCLC
# [35] = tested on: RXF 393 renal
# [36] = tested on: OVCAR-5 ovarian
# [37] = tested on: SK-MEL-28 melanoma
# [38] = tested on: NCI-H522 lung
# [39] = tested on: SK-MEL-5 melanoma
# [40] = tested on: SK-OV-3 ovarian
# [41] = tested on: RPMI-8226 leukemia
# [42] = tested on: HT29 colon
# [43] = tested on: COLO 205 colon
# [44] = tested on: CCRF-CEM leukemia
# [45] = tested on: M14 melanoma
# [46] = tested on: SF-295 CNS
# [47] = tested on: IGROV1 ovarian
# [48] = tested on: SW-620 colon
# [49] = tested on: A498 renal
# [50] = tested on: MDA-MB-435
structure (smiles),measurement,setting,value
CNC(=O)c1cc(Oc2ccc3nc(NC(=O)c4ccc(CN5CCCN(C)CC5)c(C(F)(F)F)c4)sc3c2)ccn1,GI50,[1],1700 nM
same,TGI,[1],3280 nM
same,GI50,[2],1400 nM
same,TGI,[2],2840 nM
same,GI50,[3],1350 nM
same,TGI,[3],2710 nM
same,GI50,[4],1480 nM
same,TGI,[4],3240 nM
same,GI50,[5],1850 nM
same,TGI,[5],3410 nM
same,GI50,[6],1640 nM
same,TGI,[6],3080 nM
same,GI50,[7],1690 nM
same,TGI,[7],3320 nM
same,GI50,[8],1440 nM
same,TGI,[8],2800 nM
same,GI50,[9],1480 nM
same,TGI,[9],3800 nM
same,GI50,[10],1680 nM
same,TGI,[10],3140 nM
same,GI50,[11],1880 nM
same,TGI,[11],3360 nM
same,GI50,[12],1520 nM
same,TGI,[12],2900 nM
same,GI50,[13],1570 nM
same,TGI,[13],2950 nM
same,GI50,[14],502 nM
same,TGI,[14],2150 nM
same,GI50,[15],1680 nM
same,TGI,[15],3210 nM
same,GI50,[16],331 nM
same,TGI,[16],1460 nM
same,GI50,[17],1670 nM
same,TGI,[17],3180 nM
same,GI50,[18],1780 nM
same,TGI,[18],3380 nM
same,GI50,[19],1360 nM
same,TGI,[19],3000 nM
same,GI50,[20],1460 nM
same,TGI,[20],3100 nM
same,GI50,[21],1610 nM
same,TGI,[21],3080 nM
same,GI50,[22],1100 nM
same,TGI,[22],2320 nM
same,GI50,[23],1650 nM
same,TGI,[23],3140 nM
same,GI50,[24],1160 nM
same,TGI,[24],2400 nM
same,GI50,[25],959 nM
same,TGI,[25],2240 nM
same,GI50,[26],1730 nM
same,TGI,[26],3300 nM
same,GI50,[27],1600 nM
same,TGI,[27],3110 nM
same,GI50,[28],1720 nM
same,TGI,[28],3090 nM
same,GI50,[29],1250 nM
same,TGI,[29],2550 nM
same,GI50,[30],1350 nM
same,TGI,[30],2940 nM
same,GI50,[31],2400 nM
same,TGI,[31],4030 nM
same,GI50,[32],1680 nM
same,TGI,[32],3530 nM
same,GI50,[33],1220 nM
same,TGI,[33],2480 nM
same,GI50,[34],1700 nM
same,TGI,[34],3140 nM
same,GI50,[35],1070 nM
same,TGI,[35],2270 nM
same,GI50,[36],1640 nM
same,TGI,[36],3070 nM
same,GI50,[37],1300 nM
same,TGI,[37],2640 nM
same,GI50,[38],1740 nM
same,TGI,[38],3310 nM
same,GI50,[39],1590 nM
same,TGI,[39],2980 nM
same,GI50,[40],1760 nM
same,TGI,[40],3270 nM
same,GI50,[41],694 nM
same,TGI,[41],2600 nM
same,GI50,[42],387 nM
same,TGI,[42],1480 nM
same,GI50,[43],1390 nM
same,TGI,[43],2780 nM
same,GI50,[44],1800 nM
same,TGI,[44],4060 nM
same,GI50,[45],1220 nM
same,TGI,[45],2650 nM
same,GI50,[46],1760 nM
same,TGI,[46],3220 nM
same,GI50,[47],1740 nM
same,TGI,[47],3400 nM
same,GI50,[48],1700 nM
same,TGI,[48],3190 nM
same,GI50,[49],1960 nM
same,TGI,[49],3380 nM
same,GI50,[50],1480 nM
same,TGI,[50],2880 nM
